The values below come from US20090131431A1, “Pyrazolo[3,4-b]pyridine compounds, and their use as a PDE4 inhibitors” (priority 2005, published 2009).

Assay [1] has as its system atopic dermatitis patients. Particulars: cited from earlier work.
Assay [2] has as its target T1, PDE4B (human recombinant) (Homo sapiens, UniProt Q07343).
T1 construct: made in house
Kind of assay: Inhibition of PDE4B activity: SPA and/or Fluorescence Polarisation (FP) assay. Format: biochemical. The conditions noted are these: one reading (n=1) or average of 2 or more readings, read-out: PDE4B pIC50 (±about 0.5) (converted). Put shortly:
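Human recombinant PDE4B activity measured by SPA with [3H]cAMP at about 10 nM, 1 h at ambient temperature, enzyme set for ≤20% substrate hydrolysis, or by IMAP FP with Fl-cAMP at about 40 nM, 40 min at ambient temperature under linear conditions. Inhibition curves fitted; values reported as pIC50.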
For orientation: In fluorescence polarisation assays a small probe gives low polarisation when free and higher when bound to something large.

For the next assay, the system named is COPD patients. The conditions noted are these: cited from earlier work.
For assay [3], the system named is humans with histories of allergic rhinitis. The conditions noted are these: orally 500 ug once daily for 9 days; intranasal allergen provocation (pollen extracts); cited from earlier work.

Counter-ions that a name gives are not always drawn.

T1 sequence (Q07343 1-564 isoform Q07343-2): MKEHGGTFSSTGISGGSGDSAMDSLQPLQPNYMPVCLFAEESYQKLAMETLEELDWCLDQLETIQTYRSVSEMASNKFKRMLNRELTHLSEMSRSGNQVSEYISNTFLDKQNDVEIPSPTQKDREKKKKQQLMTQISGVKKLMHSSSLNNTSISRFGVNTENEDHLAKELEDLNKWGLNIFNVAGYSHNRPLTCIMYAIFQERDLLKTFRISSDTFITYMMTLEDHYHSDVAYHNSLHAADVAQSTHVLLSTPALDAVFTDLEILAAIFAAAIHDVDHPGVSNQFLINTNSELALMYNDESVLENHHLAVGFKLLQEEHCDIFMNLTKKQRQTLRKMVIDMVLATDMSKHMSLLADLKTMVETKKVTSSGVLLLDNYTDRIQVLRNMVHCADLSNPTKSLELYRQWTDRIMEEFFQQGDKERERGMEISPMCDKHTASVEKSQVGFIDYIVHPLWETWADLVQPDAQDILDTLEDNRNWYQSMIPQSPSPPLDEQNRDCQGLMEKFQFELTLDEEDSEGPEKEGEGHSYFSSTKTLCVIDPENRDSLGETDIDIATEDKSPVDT

Consider `COc1ccc(C2CNC(=O)NC2)cc1O[C@H]1C[C@@H]2CC[C@H]1C2` [CP80,633], for which the “inflammatory parameters in atopic dermatitis patients” value in assay [1] (0.5% ointment, twice daily topical application) is listed as “reductions of inflammatory parameters”.

With `CCn1ncc2c(NC3CCOCC3)c(CNC(=O)c3ccc(C(F)(F)F)o3)c(C)nc21` [Example 324, N-{[1-ethyl-6-methyl-4-(tetrahydro-2H-pyran-4-ylamino)-1H-pyrazolo[3,4-b]pyridin-5-yl]methyl}-5-(trifluoromethyl)-2-furancarboxamide], the IC50 in assay [2] is 0.126 to 1 nM.

In the case of `CCc1nc2c(cnn2CC)c(NC2CCOCC2)c1CNC(=O)c1ccc(C#N)nc1` [Example 325, 6-cyano-N-{[1,6-diethyl-4-(tetrahydro-2H-pyran-4-ylamino)-1H-pyrazolo[3,4-b]pyridin-5-yl]methyl}-3-pyridinecarboxamide], the IC50 in assay [2] was 0.126 to 1 nM.

Turning to `CCc1nc2c(cnn2CC)c(NC2CCOCC2)c1CNC(=O)c1ccc(C(F)(F)F)nc1` [Example 326, N-{[1,6-diethyl-4-(tetrahydro-2H-pyran-4-ylamino)-1H-pyrazolo[3,4-b]pyridin-5-yl]methyl}-6-(trifluoromethyl)-3-pyridinecarboxamide], the IC50 in assay [2] was 0.126 to 1 nM.

In the case of `CCc1nc2c(cnn2CC)c(NC2CCOCC2)c1CNC(=O)c1cnc(C)nc1` [Example 331, N-{[1,6-diethyl-4-(tetrahydro-2H-pyran-4-ylamino)-1H-pyrazolo[3,4-b]pyridin-5-yl]methyl}-2-methyl-5-pyrimidinecarboxamide], the IC50 in assay [2] is 0.126 to 1 nM.

On to `CCc1nc2c(cnn2CC)c(NC2CCOCC2)c1CNC(=O)c1ccc(C)nc1` [Example 334, N-{[1,6-diethyl-4-(tetrahydro-2H-pyran-4-ylamino)-1H-pyrazolo[3,4-b]pyridin-5-yl]methyl}-6-methyl-3-pyridinecarboxamide], for which the IC50 in assay [2] is 0.126 to 1 nM.

As to `CCc1nc2c(cnn2CC)c(NC2CCOCC2)c1CNC(=O)c1oc(C)nc1C` [Example 335, N-{[1,6-diethyl-4-(tetrahydro-2H-pyran-4-ylamino)-1H-pyrazolo[3,4-b]pyridin-5-yl]methyl}-2,4-dimethyl-1,3-oxazole-5-carboxamide formate], in assay [2], the IC50 is 0.126 to 1 nM.

`CCn1ncc2c(NC3CCOCC3)c(CNC(=O)c3cnc(C(C)(C)C)nc3)c(C)nc21` [Example 336, 2-(1,1-dimethylethyl)-N-{[1-ethyl-6-methyl-4-(tetrahydro-2H-pyran-4-ylamino)-1H-pyrazolo[3,4-b]pyridin-5-yl]methyl}-5-pyrimidinecarboxamide]: the IC50 in assay [2] was 0.126 to 1 nM.

Consider `CCn1ncc2c(NC3CCOCC3)c(CNC(=O)c3ccc(C)nc3)c(C)nc21` [Example 337, N-{[1-ethyl-6-methyl-4-(tetrahydro-2H-pyran-4-ylamino)-1H-pyrazolo[3,4-b]pyridin-5-yl]methyl}-6-methyl-3-pyridinecarboxamide], for which, in assay [2], the IC50 was 0.126 to 1 nM.

Regarding `CCc1nc2c(cnn2CC)c(NC2CCOCC2)c1CNC(=O)c1csc(C(F)(F)F)n1` [Example 339, N-{[1,6-diethyl-4-(tetrahydro-2H-pyran-4-ylamino)-1H-pyrazolo[3,4-b]pyridin-5-yl]methyl}-2-(trifluoromethyl)-1,3-thiazole-4-carboxamide], the IC50 in assay [2] was 0.01 to 0.1 nM.

For the compound `CCc1nc2c(cnn2CC)c(NC2CCOCC2)c1CNC(=O)C1CCN(S(C)(=O)=O)CC1` [Example 341, N-{[1,6-diethyl-4-(tetrahydro-2H-pyran-4-ylamino)-1H-pyrazolo[3,4-b]pyridin-5-yl]methyl}-1-(methylsulfonyl)-4-piperidinecarboxamide], the IC50 in assay [2] was 0.126 to 1 nM.

As to `CCc1nc2c(cnn2CC)c(NC2CCOCC2)c1CN1CCN(C)C1=O` [Example 343, 1-{[1,6-diethyl-4-(tetrahydro-2H-pyran-4-ylamino)-1H-pyrazolo[3,4-b]pyridin-5-yl]methyl}-3-methyl-2-imidazolidinone], the IC50 in assay [2] is 0.126 to 1 nM.

Turning to `CCc1nc2c(cnn2CC)c(NC2CCOCC2)c1CN1Cc2nnsc2C1=O` [Example 344, 5-{[1,6-diethyl-4-(tetrahydro-2H-pyran-4-ylamino)-1H-pyrazolo[3,4-b]pyridin-5-yl]methyl}-4,5-dihydro-6H-pyrrolo[3,4-d][1,2,3]thiadiazol-6-one], the IC50 in assay [2] is 0.126 to 1 nM.

Consider `CCc1nc2c(cnn2CC)c(NC2CCOCC2)c1CNC(=O)c1cnc(C(C)C)nc1` [Example 346, N-{[1,6-diethyl-4-(tetrahydro-2H-pyran-4-ylamino)-1H-pyrazolo[3,4-b]pyridin-5-yl]methyl}-2-(1-methylethyl)-5-pyrimidinecarboxamide], for which, in assay [2], the IC50 was 0.126 to 1 nM.

On to `CCn1ncc2c(NC3CCOCC3)c(CNC(=O)c3cnc(C(C)C)nc3)c(C)nc21` [Example 347, N-{[1-ethyl-6-methyl-4-(tetrahydro-2H-pyran-4-ylamino)-1H-pyrazolo[3,4-b]pyridin-5-yl]methyl}-2-(1-methylethyl)-5-pyrimidinecarboxamide], for which the IC50 in assay [2] is 0.126 to 1 nM.

On to `CCn1ncc2c(NC3CCOCC3)c(CNC(=O)c3cnc(C)cn3)c(C(F)(F)F)nc21` [Example 348, N-{[1-Ethyl-4-(tetrahydro-2H-pyran-4-ylamino)-6-(trifluoromethyl)-1H-pyrazolo[3,4-b]pyridin-5-yl]methyl}-5-methyl-2-pyrazinecarboxamide], for which, in assay [2], the IC50 was 0.126 to 1 nM.

As to `CCn1ncc2c(NC3CCOCC3)c(CNC(=O)c3cnc(C)s3)c(C(F)(F)F)nc21` [Example 349, N-{[1-Ethyl-4-(tetrahydro-2H-pyran-4-ylamino)-6-(trifluoromethyl)-1H-pyrazolo[3,4-b]pyridin-5-yl]methyl}-2-methyl-1,3-thiazole-5-carboxamide], the IC50 in assay [2] was 0.126 to 1 nM.

Regarding `COc1ccc([C@]2(C#N)CC[C@@H](C(=O)O)CC2)cc1OC1CCCC1` [cilomilast], the “forced expiratory volume in 1s (FEV1) in COPD patients” value in the assay with COPD patients (15 mg orally twice daily) is listed as “appears to improve forced expiratory volume in 1s (FEV1)”. In addition, the “antiinflammatory effects in COPD patients” value in the assay on COPD patients (human, in vivo) is recorded as “appears to have antiinflammatory effects”.

Regarding `Nc1nc2c([nH]1)c(=O)n(CC1CC1)c(=O)n2CC1CC1` [cipamfylline], in assay [1] (0.15% cream, vs vehicle and hydrocortisone 17-butyrate (0.1%) cream), the “effectiveness in the treatment of atopic dermatitis patients” value was “significantly more effective than vehicle, but significantly less effective than hydrocortisone 17-butyrate (0.1%) cream”.

Take `O=C(Nc1c(Cl)cncc1Cl)c1ccc(OC(F)F)c(OCC2CC2)c1` [roflumilast]: the “rhinal airflow during the treatment period (compared to placebo)” value in assay [3] is “effective in improving rhinal airflow”. The “FEV1 in COPD patients” value in the assay on COPD patients (human, in vivo) is listed as “appears to show small improvements in FEV1”.
